# System: rgVN04 H5N1 virus
# Design: species or system mice
# Settings: mouse, in vivo
substance,measurement,value
cholera toxin [CT],early protection by VN04 H5N1 vaccine combined with adjuvant,did not provide any early protection

# Reference: patent US20220362153A1, “COMPOSITIONS AND METHODS FOR PULMONARY SURFACTANT-BIOMIMETIC NANOPARTICLES” (priority 2019, published 2022)
